Laboratory results taken from patent US10562857B2 (AFASCI, Inc., priority 2015, dated 2020).
Entries after “also recorded” stand apart in the source; their conditions may differ.

Experiments:
SNI rats [1] = assay: Spared nerve injury (SNI) rats, von Frey monofilament test; format: in vivo, rat; settings: for duration of elevated mechanical thresholds: 10 mg/kg P.O.
Experimental: FIG. 3B. Mechanical pain threshold assessment (von Frey monofilament test) of SNI rats' left hindpaws. Each SNI rat received either EXAMPLE-106, -107, and -115 (each 30 mg/kg, 1 mL I.P.), or vehicle (1 mL I.P. 2% DMSO in 0.5% HPC). Sham rats also received vehicle I.P. injections. […] The sham-vehicle serves as a positive control. Thermal and mechanical pain responses were measured once every hour for 8 consecutive hours after I.P. treatment (n=8 rats per treatment group).
FIG. 4. Mechanical pain threshold assessment (von Frey monofilament test) of left hindpaws in another cohort of SNI rats. Each SNI rat received either EXAMPLE-128, -130, -132, or Z944 (as a reference compound, each 10 mg/kg, 2 mL oral gavage, P.O.). […] Mechanical pain responses were measured at pre-dosing, 1, 2, 4, and 6 hours post-treatment using von Frey monofilament test (n=8 rats per group).
In additional examples shown here, the analgesic effects were further evaluated in another rat species. Baseline thermal and mechanical thresholds of male rats (Sprague-Dawley rats, 275 g-325 g, Harlan) were taken prior to surgery; baseline thresholds were measured on the rats' left hindpaws. Thirty-two rats underwent the SNI surgery on their left hind leg; 8 rats underwent surgery without injury of the nerves as a sham group. Two weeks post-surgery, the thermal thresholds of each rat were reassessed. […] Each rat received either EXAMPLE-106, -107, -115 (each 30 mg/kg, 1 mL I.P.), or vehicle (2% DMSO in 0.5% HPC). Thermal and mechanical thresholds were measured at 1, 2, 3, 4, 5, 6, 7, and 8 hours post-treatment/dosing. […] The drug actions started around 1 hour post-injection and peaked between 2 and 3 hours, and the drug effects gradually declined to pre-treatment levels over 6-7 hours (FIGS. 3A and B).
In another cohort of SNI rats ((n=8 per group)), mechanical thresholds were measured at pre-dosing, 1, 2, 4, and 6 hours post-treatment using von Frey monofilament test.

SNL rats = assay: Spinal nerve ligation (SNL) rats, von Frey monofilament test; format: in vivo, rat; settings: for order of analgesic efficacy against allodynia: each 30 mg/kg P.O.; for SNL Model Mechanical % of baseline: pain in rats, 30 mg/kg, P.O.
Experimental: FIG. 5A. Mechanical pain threshold assessment (von Frey monofilament test) of spinal nerve ligation (SNL) rats' left hindpaws. Each SNL rat received either EXAMPLE-128, at 3, 10 or 30 mg/kg (2 mL oral gavage, P.O.), or vehicle (2 mL 2% DMSO in 0.5% HPC, P.O.). […] Mechanical pain responses were measured at 1, 2, 4 and 6 hours after treatment (n=8 rats per treatment group).
FIG. 5B. Mechanical pain threshold assessment (von Frey monofilament test) of SNL rats' left hindpaws. In the same cohort of animals, each SNL rat received either EXAMPLE-128, -130, Z944 (as a reference compound, each at 30 mg/kg, 2 mL oral gavage, P.O.), or vehicle (2 mL 2% DMSO in 0.5% HPC, P.O.). The degree of analgesia against allodynia in the order of EXAMPLE-128>Z944>EXAMPLE-130 compared to the […] group. Mechanical pain responses were measured at 1, 2, 4 and 6 hours after treatment (n=8 rats per treatment group).
The spinal nerve ligation (SNL) in rats is another commonly used neuropathic pain model (Kim & Chung, 1992). The analgesic effect of the selected EXAMPLE-128 was tested in this model. Baseline mechanical thresholds on the rats' left hindpaws of male rats (Sprague-Dawley rats, 300 g-350 g, Harlan) were taken using von Frey hair monofilaments prior to surgery. Ligation of the L5 peripheral nerve was made on the left side under anesthesia. Total 32 rats underwent surgery (n=8 rats per treatment group). Ten days post-surgery, approximately 75-85(%) reduction in mechanical pain was observed, confirming the presence of mechanical allodynia in the SNL rats. Each rat received either EXAMPLE-128 (at 3, 10 and 30 mg/kg, each dose in […], P.O.), or vehicle (2% DMSO in 0.5% HPC, […], P.O.). Mechanical thresholds were measured at 1, 2, 4, and 6 hours post-treatment/dosing. […] The drug actions started around 1 hour post-injection and peaked between 1 and 2 hours, and the drug effects gradually declined to pre-treatment levels in 6 hours (FIG. 5A). After the drug had been eliminated, and the thresholds had returned to initial mechanical allodynia, a comparative test of EXAMPLE-128 and -130 vs Z944 (each at 30 mg/kg, P.O.) was conducted in the same cohort of SNL rats. The analgesic efficacy is in the order of EXAMPLE-128>Z944>EXAMPLE-130 (FIG. 5B).

SNI rats [2] = assay: Spared nerve injury (SNI) rats, von Frey monofilament test; format: in vivo, rat; settings: pain in rats, 30 mg/kg, P.O.
[3] = Plasma protein binding, human; format: in vitro ADME; settings: for fraction unbound: read-out: PPB % (Human) (converted)
From the text: (§1) In vitro data of metabolic stability and protein binding as well as in vivo pharmacokinetic data for compounds of the invention can be generated using the techniques disclosed in, e.g., Obach, R. S. et al., J. Pharmacol. Exp. Ther. 283(1): 46-58 (1997), which is hereby incorporated by reference in its entirety. Various biological, pharmacokinetic and other properties of the compounds, including hepatic microsomal stability, determination of metabolites, binding to proteins such as plasma protein binding, and in vivo studies, including single-dose and multi-dose pharmacokinetic studies, can be determined using the protocols described in that publication and the publications cited therein. Other aspects and advantages of the present invention will become apparent from the above detailed description, as illustrated by way of example of the principles of the invention. The scope of the invention is to be defined by the claims appended hereto and their equivalents. Selected pharmacokinetic studies in vitro and in vivo in rats were performed for preferred compounds, for example EXAMPLE-128 and compared with two reference compounds ML218 and Z944 by a contract research organization (BioDuro, Inc., San Diego, US). Tables 3A and 3B summarize some of the in vitro and vivo pharmacodynamic and pharmacokinetic parameters, respectively.

[4] = Metabolic stability in rat liver microsomes; format: in vitro ADME
From the text: as §1

Plasma stability, rat = format: in vitro ADME
From the text: as §1

Rat pharmacokinetics = format: in vivo; settings: for half-life / AUC / bioavailability: plasma; for AUC: read-out: Rat PK AUCfree; for bioavailability: read-out: Rat PK F (%) bioavailability
From the text: as §1

[5] = Metabolic stability in human liver microsomes; format: in vitro ADME
From the text: as §1

[6] = Plasma protein binding, rat; format: in vitro ADME; settings: for fraction unbound: read-out: PPB % (Rat) (converted)
From the text: as §1

Plasma stability, human = format: in vitro ADME
From the text: as §1

[7] = 10 mg/kg oral gavage, P.O., 10 mg/kg
[8] = SNL rats, 3, 10 and 30 mg/kg P.O.
[9] = iv, read-out: Plasma t1/2 (h) iv (converted)
[10] = po, read-out: Plasma t1/2 (h) po (converted)
[11] = read-out: Rat Liver Microsomes Clint (μL/min/mg protein)
[12] = read-out: Rat Liver Microsomes t1/2
[13] = read-out: Human Liver Microsomes Clint (μL/min/mg protein)
[14] = read-out: Human Liver Microsomes t1/2

Row | Compound | duration of elevated mechanical thresholds (SNI rats [1]) | mechanical pain threshold of left hindpaw (allodynia) (SNI rats [1]; [7]) | order of analgesic efficacy against allodynia (SNL rats; SNL rats) | SNI-Model Mechanical % of baseline (SNI rats [2]) | recovery [3] | fraction unbound [3] | Plasma Stability @ 5 h % (Rat) (Plasma stability, rat) | SNL Model Mechanical % of baseline (SNL rats) | Rat PK AUCtotal (μM*h) (Rat pharmacokinetics) | half-life (Rat pharmacokinetics; [9]) | half-life (Rat pharmacokinetics; [10]) | AUC (Rat pharmacokinetics) | bioavailability (Rat pharmacokinetics) | recovery [6] | fraction unbound [6] | Plasma Stability @ 5 h % (Human) (Plasma stability, human) | microsomal CLint [4, 11] | half-life [4, 12] | microsomal CLint [5, 13] | half-life [5, 14] | also measured
1 | CC(C)(C)NC(=O)CN1CCC2(CC1)C[C@H]2C(=O)Nc1cc(C(F)(F)F)cc(C(F)(F)F)c1 (single isomer, unassigned) [Example 132, (R)—N-(3,5-Bis(trifluoromethyl)phenyl)-6-(2-(tert-butylamino)-2-oxoethyl)-6-azaspiro[2.5]octane-1-carboxamide or (S)—N-(3,5-Bis(trifluoromethyl)phenyl)-6-(2-(tert-butylamino)-2-oxoethyl)-6-azaspiro[2.5]octane-1-carboxamide] | approximately 4 hours | elevated mechanical thresholds; also recorded: reduced allodynia | – | – | – | – | – | – | – | – | – | – | – | – | – | – | – | – | – | – | –
2 | CC(C)(C)NC(=O)CN1CCC2(CC1)C[C@H]2NC(=O)c1cc(F)cc(C(F)(F)F)c1 (single isomer, unassigned) [Example 130, (R)—N-(6-(2-(tert-Butylamino)-2-oxoethyl)-6-azaspiro[2.5]octan-1-yl)-3-fluoro-5-(trifluoromethyl)benzamide or (S)—N-(6-(2-(tert-Butylamino)-2-oxoethyl)-6-azaspiro[2.5]octan-1-yl)-3-fluoro-5-(trifluoromethyl)benzamide] | approximately 4 hours | elevated mechanical thresholds; also recorded: reduced allodynia | EXAMPLE-128>Z944>EXAMPLE-130 | – | – | – | – | – | – | – | – | – | – | – | – | – | – | – | – | – | –
3 | CC(C)(C)NC(=O)CN1CCC2(CC1)CC2NC(=O)c1cc(F)cc(Cl)c1 (single isomer, unassigned) [Example 128, (S)—N-(6-(2-(tert-Butylamino)-2-oxoethyl)-6-azaspiro[2.5]octan-1-yl)-3-chloro-5-fluorobenzamide or (R)—N-(6-(2-(tert-Butylamino)-2-oxoethyl)-6-azaspiro[2.5]octan-1-yl)-3-chloro-5-fluorobenzamide] | approximately 4 hours | elevated mechanical thresholds; also recorded: reduced allodynia | EXAMPLE-128>Z944>EXAMPLE-130 | 45 ± 15 % of baseline | 98.3% | 0.043 | 98.3% | 129 ± 28 % of baseline | 4.1 h/µM | 3.34 h | 3.66 h | 1 µM·h | 62% | 90.4% | 0.242 | 95.7/ % | – | – | – | – | half-life [4]: 315 min; microsomal CLint [4]: 2.2 µL/min/mg; start of drug action post-injection (SNL rats; [8]): around 1 hour; time for drug effects to decline to pre-treatment levels (SNL rats; [8]): 6 h; mechanical pain threshold of left hindpaw (allodynia) (SNL rats; SNL rats, 3, 10 or 30 mg/kg P.O.): elevated mechanical thresholds in a dose-related manner; also recorded: reduced allodynia compared to the SNI-vehicle group in a dose-related manner; half-life [5]: 365 min; microsomal CLint [5]: 1.9 µL/min/mg
4 | CC(C)(C)NC(=O)CN1CCC(CNC(=O)c2cc(F)cc(Cl)c2)CC1 [Z944, reference compound] | approximately 4 hours | elevated mechanical thresholds; also recorded: reduced allodynia | EXAMPLE-128>Z944>EXAMPLE-130 | 28 ± 18 % of baseline | 93.6% | 0.064 | 100% | 94 ± 38 % of baseline | 0.51 h/µM | 1.5 h | 2.26 h | 0.14 µM·h | 55% | 91.1% | 0.287 | 100/ % | 13.2 µL/min/mg | 52.5 min | 5.5 µL/min/mg | 126 min | –
5 | CC(C)(C)CCN1C[C@@H]2[C@@H](CNC(=O)c3cc(Cl)cc(Cl)c3)[C@@H]2C1 [ML218, 3,5-Dichloro-N-[[(1α,5α,6-exo,6α)-3-(3,3-dimethylbutyl)-3-azabicyclo[3.1.0]hex-6-yl]methyl]benzamide, reference compound] | – | – | – | 45 ± 11 % of baseline | 97.1% | 0.046 | 99.2% | – | 0.071 h/µM | 236 h | – | 0.007 µM·h | 28% | 94.9% | 0.108 | 97.9/ % | 5.5 µL/min/mg | 126 min | 1.1 µL/min/mg | 630 min | –
6 | O=C(Nc1nnc(-c2ccccc2)o1)c1ccc(Cl)s1 [Example 115, 5-Chloro-N-(5-phenyl-1,3,4-oxadiazol-2-yl)thiophene-2-carboxamide] | – | – | – | – | – | – | – | – | – | – | – | – | – | – | – | – | – | – | – | – | start of drug action post-injection (SNI rats [1]; 30 mg/kg I.P., thermal and mechanical thresholds): around 1 hour; mechanical pain threshold of left hindpaw (allodynia) (SNI rats [1]; 30 mg/kg, 1 mL I.P.): elevated both thermal and mechanical thresholds; also recorded: reduced allodynia
